Patent publication US8957022B2, “Multimeric tie 2 agonists and uses thereof in stimulating angiogenesis” (Sunnybrook Health Sciences Centre, priority 2006, dated 2015)

Legend:
CD1 mice [1] = test: Matrigel plug angiogenesis assay; format: in vivo, mouse; conditions: for Vessel growth in plugs (confocal analysis): FITC lectin
Experimental: To further examine the in vivo angiogenic potential of Vasculotide, a Matrigel assay was performed. More specifically, growth factor reduced Matrigel (BD Biosciences) was impregnated with either clustered Vasculotide or one of several different control factors. These Matrigel samples were injected subcutaneously into the flank region of 3 month old CD1 mice. 14 days post implantation and immediately prior to sacrifice, FITC lectin (100 μg) was injected IV and allowed to circulate for 10 minutes, to facilitate vessel identification and quantification. Plugs were surgically resected and fixed in 4% paraformaldehyde (PFA) for 16 h. Images of vascular topology were taken using a Zeiss dissecting microscope at 4× magnification. Upon fixing, all plugs were whole mount stained with anti-Sma1-Cy3. Plugs were analyzed on a Zeiss Axiovert 100 M confocal microscope (Carl Zeiss) for three dimensional image reconstruction and photos were processed using LSM Image Browser and Adobe Photoshop 7.0. Morphometric quantification of vessel characteristics was performed by skeletonizing confocal image projections with Image Processing Tool Kit 5.0 (IPTK 5.0). Student's t test was used to test the statistical significance with a 95% confidence interval. All experiments were performed with three replicates each, with at least 5 random image stacks.
To more fully address and assign quantitative vessel parameters to the different treatment groups, the plugs were fixed and interrogated with laser confocal microscopy analysis combined with post processing image analysis (Image Processing Tool Kit 5.0, Reindeer Graphics, N.C.). Vessel parameters, including length, number and branch points (nodes) were quantified on at least six representative fields. Statistical analysis was performed by way of unpaired Student's t test. Bar graphs of the number of vessels, vessel length and number of nodes, for each treatment group, are shown in FIGS. 3A, 3B and 3C, respectively. It is noted that poor perfusion of FITC-lecithin into mice harboring 20 nM clustered Vasculotide plus VEGF plugs prevented statistical analysis, therefore bars are the mean of two separate fields. All other bars shown represent mean+/−SD.
Ang 1 has been reported to potentiate the recruitment of myogenic support cells (Suri, C. et al. (1996) Cell 87:1171-1180) and inhibit VEGF induced vascular permeability through mechanisms that are not well understood (Thurston, G. et al. (2000) Nat. Med. 6:460-463). To determine if Vasculotide, like Ang 1, was capable of initiating pericyte recruitment, whole mount immunofluorescence was performed against smooth muscle actin 1 (Sma1). […] Sma 1 staining was tightly associated with the exterior of the vessels and was enriched on larger vessels.

MMP2 = test: Gelatin zymography of HUVEC conditioned media; format: cell-based, human; conditions: HUVEC, 0.1% FBS, 16 h, various concentrations
Experimental: In vivo, ECs can not migrate until they secrete enzymes necessary to break down components of the extra cellular matrix. Gelatin zymography was employed to determine if clustered Vasculotide promoted secretion of MMP2. To perform the zymography, HUVEC were cultured in F12 media plus 0.1% FBS and stimulated for 16 h with VEGF, unclustered Vasculotide or clustered Vasculotide at various concentrations. Conditioned media was centrifuged to remove cellular debris and prepared for gel electrophoresis using non-reducing conditions. Gels were washed twice for 30 minutes in 2.5% Triton X-100 to remove sodium dodecyl sulfate and were then incubated in substrate buffer (50 mmol/L Tris-HCl, pH 8.8, 5 mmol/L CaCl2) for 16 hours at 37° C. Gels were then stained with 0.5% Coomassie blue in 30% methanol/10% acetic acid for 2 hours at room temperature and destained in 50% methanol/10% acetic acid. The presence of metalloproteinases was indicated by unstained proteolytic zones in the gel.

[2] = tested on: B6.Cg-m(+/+)Lepr(db)/J (db/db) mice; test: Excisional wound healing in diabetic mice, topical application; format: in vivo, mouse
Experimental: Pathogen free, nine week old B6.Cg-m(+/+)Lepr(db)/J (db/db) mice were purchased from Jackson Laboratories. Circular, full excisional, 6 mm diameter wounds were made, according to animal committee approval guidelines, equal distant apart on the dorsal side of the mice. Various factors were suspended in sterile Intrasite Topical Gel (Smith and Nephew) at noted concentrations. Treatments were as follows: Vehicle n=8, bFGF (10 μg/ml) n=8, clustered Vasculotide (20 nM) n=4, clustered Vasculotide (5 nM) n=4. Preparations were applied at day 0 (time of wounding), day 2, 4 and 6. Standardized images were taken on days 0, 2, 4, 6 and 7 using a Canon EOS digital Rebel camera. Image J (NIH) was used to manually outline wound perimeter from which total pixel counts (wound area) were determined. Mice were sacrificed on day 7 and full wound beds including margin were excised and fixed in 4% PFA. Wounds were cut in half at the widest point and each half was prepared for either paraffin or frozen sections. Wax sections were processed according to standard protocols for H&E and Masson's Trichrome stain. Images were captured using a Leica DMLS compound light microscope and Pixel Link camera at 5× and 20×. Student's t test was used to test the statistical significance.
For histological scoring, sections were fixed in 4% paraformaldehyde, embedded in paraffin and sectioned and stained with H & E and Masson's trichrome. Sections were evaluated by a pathologist for re-epithelialization, granulation tissue formation, and inflammation, with criteria used for scoring skin as follows:
• 0—none • 1—minimal (0-20% regrowth from wound margins) • 2—mild (25% to 50% regrowth) • 3—moderate (>50% regrowth, up to 100% but not >2 cells thick along length) • 4—complete regrowth (epithelium>1 cell thick along length, keratinized) Granulation Tissue (GT) and Neovascularization: • 0—none • 1—minimal (1-3 small, isolated islands of GT at margins of defect) • 2—mild (multifocal, patchy islands of GT underlying tissue defect, <10 new blood vessels) • 3—moderate (locally extensive bands of GT underlying length of defect) • 4—marked (dense bands of GT at margins and underlying length of defect with collagen fibrils and numerous blood vessels) Inflammation (within Defect): • 0—none • 1—minimal (a few scattered neutrophils at margins of defect) • 2—mild (multifocal aggregates of up to 5 neutrophils underlying defect) • 3—moderate (multifocal aggregates of up to 10 neutrophils and occasional macrophages, minimal to mild edema) • 4—marked (locally extensive, dense neutrophilic infiltrates with lesser numbers of macrophages, mild-moderate edema)

CD1 mice [3] = format: in vivo; conditions: 50 μg intravenously, peripheral blood 24 hours post injection
Experimental: In this example, the effect of systemically administered Vasculotide on circulating endothelial cells was examined. Three month old CD1 mice were injected intravenously with either PBS (vehicle) or 50 μg of clustered Vasculotide. Twenty four hours post injection, peripheral blood was collected on heparin via cardiac puncture and nonhematopoietic circulating endothelial cells (CECs) were sorted using a four channel FACS approach. CECs were defined as CD13^+/VEGFR-2^+/CD45^−, Viable (propidium iodide). Cell numbers reported are number of viable cells/μl of peripheral blood. Total white blood cell count was also determined using a hemocytometer.

| Substance | Nature of vessels (arborization, tortuosity) (CD1 mice [1]; 14 days post implantation) | Vessel growth in plugs (confocal analysis) (CD1 mice [1]; 14 days post implantation) | Angiogenic response in the membranous capsule surrounding the plugs (CD1 mice [1]; 14 days post implantation, subcutaneous) | Smooth muscle actin 1 (Sma1) staining, pericyte recruitment (CD1 mice [1]; whole mount immunofluorescence) | Secretion of MMP2 (gelatin degradation, pro and active forms) (MMP2) | Benefit at lower concentration ([2]; 5 nM versus 20 nM) | Inflammation (histological score) ([2]; 5 nM, p=0.0979) | Regranulation and neovascularization (histological score) ([2]; 20 nM and 5 nM p=0.0006) | Wound margin (pixel counts) at day 2 ([2]; 20 nM topical, p=0.05, n=4) | Re-epithelialization (histological score) ([2]; 20 nM, p=0.0004 and 5 nM, p=0.029) | Inflammation (histological score) ([2]; 20 nM, p=0.034) | Overall collagen deposition (Masson's Trichrome) ([2]; both concentrations, compared to vehicle and bFGF) | Lymphangiogenesis (podoplannin-positive vessels) ([2]; immunohistochemistry) | PECAM1- and Pan EC-positive vessels within the granulation tissue ([2]; immunohistochemistry, 5 nM and 20 nM) | Margin closure for the duration of the assay ([2]; topical, days 0-7) | Number of circulating endothelial cells (CD1 mice [3]) | Granulation tissue production (H&E and MT staining) ([2]; day 7 wound sections) |
| --- | --- | --- | --- | --- | --- | --- | --- | --- | --- | --- | --- | --- | --- | --- | --- | --- | --- |
| clustered Vasculotide: Vasculotide clustered with avidin in a 4:1 ratio, an obligate tetrameric compound | clear, large, well arborized vessels | robust induction of angiogenesis | distinct and robust angiogenic response | significant increase in overall Sma 1 staining | dose-dependently degraded gelatin | seemed to offer more benefit | not significantly different from vehicle | profound increases in regranulation and neovascularization | Significant decreases in wound margin | delayed re-epithelialization | only slightly increased | dramatically increased | not accompanied by an increase in lymphangiogenesis | dramatic increases in the number of PECAM1- and Pan EC-positive vessels | continued at an accelerated pace | – | – |
| Vasculotide: biotinylated T7 peptide-PEG: Cys-His-His-His-Arg-His-Ser-Phe (SEQ ID NO: 2) conjugated to EZ-link-PEO-maleimide-biotin | – | no significant vessel growth | – | – | – | – | – | – | – | – | – | – | – | – | – | decrease in the number of circulating endothelial cells | dramatic increases in granulation tissue production |
